Source: PubChem BioAssay AID2305 (GlaxoSmithKline (GSK), 2010)

Test system: P. falciparum 3D7 growth, pLDH absorbance
Assay: P. falciparum 3D7 growth inhibition, dose response, strain 3D7 (AID 2305)

Structure (SMILES) | IC50 [µM]
COCC(C)n1c(SC(C)C(=O)Nc2cc([N+](=O)[O-])ccc2Cl)nc2ccccc2c1=O (stereo not given) | 0.23
Cc1cc(C)c(O)c(-c2cc(C(=O)Nc3ccc(S(=O)(=O)N4CC(C)OC(C)C4)cc3)[nH]n2)c1 (stereo not given) | 0.66
Cc1cc(N2CCCC2)nc(Nc2ccc(NC(=O)c3ccccc3C)cc2)n1 | 0.72
Brc1ccccc1CNc1ccnc(NCCn2ccnc2)n1 | 0.9
Cc1ccc(Nc2nc(NN=Cc3ccccc3[N+](=O)[O-])nc(Nc3ccc([N+](=O)[O-])cc3)n2)cc1C | 0.69
CC(C)CCNc1nc(NCc2ccccc2)c2cc(O)ccc2n1 | 0.11
Cc1nc(-c2cccc3c(NC(=O)Nc4ccc5nccc(N6CCN(C)CC6)c5c4)cccc23)no1 | 0.23
CC(C)(C)OC(=O)NCc1ccc(Nc2nnc(-c3cccc(OCC(=O)NCc4cc(C(F)(F)F)cc(C(F)(F)F)c4)c3)o2)cc1 | 0.83
CCN(CC)CCCC(C)Nc1c2ccccc2nc2c1ccc1ccccc12 (stereo not given) | 1.09
Cc1cc(F)ccc1-c1nc(N(C)CCN(C)C(=O)N(C)c2ccccc2)nc2c1ccc(=O)n2-c1c(F)cccc1F | 1.24
COC1(C)Oc2ccc3cccc([N+](=O)[O-])c3c2C1=O (stereo not given) | 0.63
COc1ccc(CCN(C)CCOc2ccc(NC(=O)c3cc(SC)cc4c(=O)c5ccccc5[nH]c34)cc2)cc1OC | 1.4
CC(=O)Nc1nc(N)c2c(ccc3c2ccn3CC(C)C)n1 | 0.07
CC(Cc1ccc(NS(=O)(=O)c2ccc(CC(C)NCCc3cccc(Cl)c3)cc2)cc1)NCCc1cccc(Cl)c1 (stereo not given) | 0.78
O=C(/C=C/c1ccc(Cl)cc1)NCCCCCN1CCCC(C(=O)Nc2ccc(Cl)cc2)C1 (stereo not given) | 1.05
c1ccc([C@H]2CN3CCSC3=N2)cc1 | 0.62
CC[C@H]1CN2CC[C@H]1C[C@H]2[C@H](O)c1cc(/C=C/c2ccccc2)nc2ccc(OC)cc12 | 0.04
Cc1cc(O)c2c(c1)OC(C)(C)C=C2C1=CCN(Cc2ccccc2)CC1 | 0.79
COc1cccc(C(=O)[C@H]2C[C@@H]2CN2CC=C(c3c[nH]c4cccc(Br)c34)CC2)c1 | 0.75
CCOc1cc(C(C)C)ccc1N1CCN(CCCCNC(=O)c2ccc(NC(=O)c3ccc(Cl)cc3)cc2)CC1 | 0.42
COc1ccc(OCCCN2CCCCC2)cc1S(=O)(=O)c1ccc(OCc2ccc(C(F)(F)F)cc2)cc1 | 1.01
CN1CCC(C(=O)Nc2cccc(-c3ccc(-c4nc5ccc(C(F)(F)F)cc5[nH]4)s3)c2)CC1 | 0.72
CC(CCc1ccccc1)NCC(O)c1ccc2c3c(cccc13)S(=O)(=O)N2C (stereo not given) | 0.63
COc1cc2c(C3CCN(CC4CCC(NC(=O)/C=C/c5ccc(Cl)c(Cl)c5)CC4)CC3)c[nH]c2cn1 (stereo not given) | 0.42

Structure (SMILES) | IC50 [µM]
Cc1c(Cc2ccc(C(C)C)cc2)cnc2nc(N)nc(N)c12 | 0.3
COc1c(C2CCN(CCCCNC(=O)c3ccc(-c4ccc(C#N)cc4)cc3)CC2)ccc2c1C(C)(C)CCC2(C)C | 0.41
COc1cc(F)c2ncc(Cl)c(CCN3CCC(NCc4ccc5c(n4)NC(=O)CO5)CC3)c2c1 | 0.5
CCN(CC)CCNc1ccnc2[nH]c3ccc(Cl)cc3c12 | 0.24
Cn1cncc1C(=O)NC1CCN(c2ccnc(Nc3ccc(F)cc3)n2)C1 (stereo not given) | 0.83
Cc1cccc2[nH]c(-c3cccc(-c4cccc(NC(=O)NCc5cccc(F)c5)c4)c3)nc12 | 0.45
CN1c2ccc([N+](=O)[O-])cc2C(C)(C)C12C=Cc1cc(Br)cc([N+](=O)[O-])c1O2 (stereo not given) | 0.78
COc1ccc(CNC(=O)c2cnc3c(O)cccc3c2Nc2cccc(NC(=O)c3ccc(-c4ccccc4)cc3)c2)cc1 | 0.94
COc1ccc(CNCc2cccc(-c3csc(-c4nc5ccccc5[nH]4)c3)c2)cc1 | 0.65
COc1ccc2nccc(N3CCC(O)(CCNCc4ccc5c(n4)NC(=O)CS5)CC3)c2n1 | 0.65
COc1ccc(C(=O)NCC(C)(C)c2nc(-c3ccc(Cl)c(O)c3)c(-c3ccncc3)[nH]2)cc1OCCN(C(C)C)C(C)C | 0.64
COc1ccc(NS(=O)(=O)c2ccccc2Br)cc1N1CCN(C)CC1 | 0.97
Cc1cc2nc(-c3ccc(/C=C/C(=O)NC4CCN(Cc5ccccc5)CC4)cc3)[nH]c2cc1C | 0.59
CCOc1ccc2c(NN=Cc3ccccn3)cc(C)nc2c1 | 0.86
COc1c(C)cc(I)cc1CNCCCNc1cc(=O)c2ccccc2[nH]1 | 1.28
CC(=O)Nc1ccc([N+](=O)[O-])c2c(Br)cccc12 | 0.64
COc1ccc(CNC2CCCC2)cc1-c1ccc(S(=O)(=O)NCCN2CCCC2)s1 | 0.8
CC1(C)[C@H]2CC[C@@H](CNc3nc(NCCc4cnc[nH]4)nc(NCc4cc(F)ccc4F)n3)[C@@H]1C2 | 0.31
O=C(c1ccc2ccccc2n1)N1CCCc2cc(Br)ccc21 | 0.86
CC(C)(CNCc1ccc(F)c(F)c1)c1nc(-c2ccc(Cl)c(O)c2)c(-c2ccncc2)[nH]1 | 0.66
CN(C)C=Nc1ccc(OCCCCCCOc2ccc(N=CN(C)C)cc2)cc1 | 0.13
O=C(Nc1cccc(CN2CCCN(Cc3ccc(O)cc3)CC2)c1)c1cccc(Cl)c1 | 0.91
Cc1cc(C(=O)OCC(N)=O)c(C)n1-c1ccc(F)cc1 | 0.33
O=C(Nc1cccc(F)c1)N1CCC(NS(=O)(=O)c2ccc(Br)cc2)CC1 | 0.98

Structure (SMILES) | IC50 [µM]
CN(C)CCNCc1cccc(-c2ccc3c(Nc4ccc(Oc5ccccc5)cc4)ccnc3c2)c1 | 0.44
CC(C)(CNC(=O)/C=C/c1ccc(C(F)(F)F)cc1)CNc1cc(=O)c2ccccc2[nH]1 | 0.91
COc1ccc2nc3cc(Cl)ccc3c(NCCCCNc3c4ccc(Cl)cc4nc4ccc(OC)cc34)c2c1 | 0.16
O=C(NC1CCN(CC2(c3ccccc3)CCCC2)CC1)c1[nH]ncc1Cl | 1.04
COc1ccc(-c2cn3c(C(=O)Nc4ccccc4Cl)c(-c4ccccc4)c4c3n2CCCC4)cc1 | 0.79
COc1ccc(-c2csc(C(=O)NC3CCC(N4CCC(c5ccccc5C)CC4)CC3)c2)cc1 (stereo not given) | 0.38
COc1ccccc1C1CCN(C2CCC(NC(=O)c3ccc4nc(-c5ccc(C)cc5)[nH]c4c3)CC2)CC1 (stereo not given) | 0.31
CC[C@H]1CN2CC[C@@H]1C[C@H]2[C@H](O)c1cc(-c2cccnc2)nc2ccc(OC)cc12 | 0.04
CC(C)Cc1cn(-c2nc(C(=N)N)cs2)c2cc(Cl)ccc12 | 0.15
CN1CCN(S(=O)(=O)c2ccc3nccc(Nc4ccc(Oc5ccccc5)cc4)c3c2)CC1 | 0.82
C=CCO[C@@H]1O[C@H](COC(c2ccccc2)(c2ccccc2)c2ccccc2)[C@@H](OC(C)=O)[C@H](OC(C)=O)[C@H]1NC(C)=O | 0.66
O=C(O)C[C@H](NC(=O)CCCNC(=O)c1cccc(-c2ccc(Cl)c(Cl)c2)c1)C(=O)O | 0.88
CC(C)[C@H]1CC[C@H](C)C[C@@H]1OC(=O)N[C@@H](Cc1ccc(O)cc1)C(=O)NC1CCN(Cc2ccc(OCCCN(C)C)cc2)C1 (stereo not given in full) | 0.76
CCC(C)NS(=O)(=O)c1ccc2nc(Nc3ccc(C)c(Cl)c3)n([C@H](C)C(C)(C)C)c2c1 (stereo not given in full) | 0.38
Cc1c(Cc2ccccc2Cl)cnc2nc(N)nc(N)c12 | 0.01
Cc1nn(C)cc1C(C)Nc1nncc(-c2ccc(C(F)(F)F)cc2)n1 (stereo not given) | 0.25
COc1cccc(CNC[C@@H](O)[C@H](Cc2ccccc2)NC(=O)c2cc(OC(C)C)cc(N3CCCCS3(=O)=O)c2)c1 | 0.73
COc1cc2nccc(Nc3ccc(OCc4ccc(NC(C)=O)cc4)cc3)c2cc1OC | 0.55
CC(=O)c1ccc(NC(=O)NNC(=O)c2ccc(CCN3CCC(c4nc(COCC(F)(F)F)c(-c5ccc(F)cc5)o4)CC3)cc2)cc1 | 0.83
O=C(/C=C/c1ccc(Cl)c(Cl)c1)NCCCN1CCC(c2c[nH]c3ccccc23)CC1 | 0.97
CCN(CC)c1ccc(C(c2ccc(N(CC)CC)cc2)c2ccc([N+](=O)[O-])cc2)cc1 | 0.95
Oc1ccc2[nH]c(-c3cccc(F)c3)nc2c1CN1CCC(N2CCCC2)CC1 | 0.18
COc1ccc(O)c(C(=O)c2cc(C(=O)NCCc3ccccc3)c(=O)n(CCc3ccccc3)c2)c1 | 1.01
N#CC(c1ccc(Br)cc1)c1ccc2c(C(F)(F)F)cc(C(F)(F)F)nc2n1 (stereo not given) | 0.44

Structure (SMILES) | IC50 [µM]
Cc1sc(CNCCCNc2cc(=O)c3ccccc3[nH]2)c(I)c1C | 0.85
C=CC[C@H](C[C@H](O)[C@H](Cc1ccccc1)NC(=O)c1ccc(-c2cccnn2)cc1)C(=O)NC1CCCCC1 | 1.19
Cc1cccc2[nH]c(-c3ccc(-c4cccc(NCc5cn6cccnc6n5)c4)cc3)nc12 | 0.79
CCc1cc([C@H]2O[C@@H](n3cnc4c(NCC(c5ccccc5)c5ccccc5)nc(NCCNc5ccccn5)nc43)[C@H](O)[C@@H]2O)on1 | 0.89
COc1cc(Nc2ccc3cc(S(=O)(=O)N4CCCCC4C)ccc3n2)cc(OC)c1OC (stereo not given) | 1.24
Cc1ccccc1C1CCN(C2CCC(NC(=O)/C=C/c3ccc(F)c(F)c3)CC2)CC1 (stereo not given) | 0.95
CC(C)(C)c1cc(C(=O)N2CCN(c3nccnc3C#N)CC2)n(Cc2ccccc2)n1 | 0.76
CCN(CC)CCCC(C)N=C(Nc1ccc(C#N)cc1O)Nc1ccccc1Br (stereo not given) | 1.04
COCCNCc1ncsc1-c1ccc2c(Nc3cc(O)ccc3C)ccnc2c1 | 0.7
CCCCSc1c(CNCCCCCCNCc2ccc3ccccc3c2SCCCC)ccc2ccccc12 | 1
CC1Cc2ccccc2N1S(=O)(=O)c1cc(OCC(F)(F)F)ccc1OCC(F)(F)F (stereo not given) | 0.65
Cc1cc(N2CCOCC2)nc(Nc2ccc(NC(=O)c3cccc4ccccc34)cc2)n1 | 1.3
COc1cc(NCC(C)CNCc2cn(Cc3ccccc3)c3ccccc23)nc2ccccc12 (stereo not given) | 0.63
O=C(Nc1ccc(-c2cccc(-c3nc4ccc(C(F)(F)F)cc4[nH]3)c2)cc1)c1cccnc1 | 0.72
Fc1ccc2nc(-c3ccc(-c4ccc(CN5CCC(CCN6CCCCC6)CC5)cc4)cc3)[nH]c2c1 | 0.13
O=C(Nc1ccc(CN2CCOCC2)cc1)c1ccc(-c2cc(Cl)ccc2Cl)o1 | 0.61
CCCCN(CCCC)CCCCNc1c2ccc(Cl)cc2nc2ccc(OC)cc12 | 0.18
CNCCNCc1cccc(-c2ccc(-c3nc4c(C)cccc4[nH]3)cc2)c1 | 0.8
COCCNCc1cccc(-c2ccc3nccc(Nc4cc(O)ccc4C)c3c2)c1 | 0.75
COc1cc(C=NNc2cc(C)nc3ccccc23)cc(OC)c1OC | 0.73
COc1ccc(CN2CCC(CN3CC4(OC3=O)c3ccccc3-c3ccccc34)C2)c(O)c1 (stereo not given) | 0.61
COc1nc2c(CCN3CC[C@H](NCc4cc(C#N)c5c(c4)OCCO5)[C@H](O)C3)ccnc2cc1F | 0.78
CN(C(=O)Cc1ccc(Cl)c(Cl)c1)C1CCN(CCCCCNC(=O)/C=C/c2ccc(Cl)c(Cl)c2)CC1 | 0.74
